Entries after “also recorded” stand apart in the source; their conditions may differ.
Legend:
Assay type in all cases: cell-based
[1] = system: primary culture of bovine mammary epithelial cells; assay: Intracellular triglyceride content in cell lysates (lipid extraction, HPLC-ELSD); details: for intracellular triglyceride content: 24 h of treatment (FIG. 7)
Excerpt: For all the experiments, primary culture of bovine mammary epithelial cells were used. The cells were isolated from 3 lactating Holstein cows according to an established protocol (Cohen et al., 2015 supra). Study protocols were in compliance with the regulations of the Israeli Ministry of Health, under the supervision of the Department for Control of Animal Products, State of Israel Ministry of Agriculture Rural Development Veterinary Services and Animal Health. Certificate Nu: #80. After isolation, 60,000 cells were plated in a 35-mm plastic dish on glass cover slips for all florescence staining experiments. For production analysis, 150,000 cells were plated in a 60-mm plastic dish for lipids, protein, and lactose extraction. Oxygen consumption assay was performed by using Seahorse system (Agilent, USA); cells were plated in 24-well plate (20,000 cells/well) and incubated with DMEM/F12, with 0.15% (v/v) bovine serum albumin and insulin (1 μg/ml), hydrocortisone (0.5 μg/ml) and prolactin (1 μg/ml) for 48 h to induce lactogenic response. Then cells were treated with three different P. lentiscus extracts: ethyl acetate, hexane and chloroform, according to the protocol that was used before (Azaizeh et al., 2013). The extracts were diluted with DMEM/F12 medium supplemented with Dimethyl Sulfoxide (DMSO) in a final concentration of 0.1% for better dissolution of the extractions. […] The treatment was given in the presence of insulin (1 μg/ml), hydrocortisone (0.5 μg/ml) and prolactin (1 μg/ml). […] Otherwise, cells were fixed for florescence staining or plates taken to seahorse for oxygen consumption rate measurement.
After treatment, total lipids were extracted from harvested cells and from collected medium. The medium or the cells were diluted by 20 times Folch reagent (Chloroform-Methanol 2:1). After overnight incubation with cold extraction at 4° C., the upper phase was removed, and the lower phase was filtered through glass wool. Samples were then evaporated under a nitrogen stream at 65° C., diluted in 100 μl chloroform:methanol (97:3, v/v) and stored at −20° C. until injection for HPLC analysis. […] Quantification was performed against external standard curves and expressed as μg/per 10^6 live cells or as weight % out of the sum of phospholipids (μg) in the sample. Live cell number was determined with a hemocytometer after 5 min of trypan blue staining. […]
Cells were incubated with 360 uM oleic acid (O) with or without 1.2 mM beta hydroxybutyrate (BHBA, H). The concentration of triglyceride was measured in cell lysates.

[2] = system: primary culture of bovine mammary epithelial cells; assay: Intracellular lipid droplets fluorescence staining (Nile red / DAPI)
Excerpt: For all the experiments, primary culture of bovine mammary epithelial cells were used. The cells were isolated from 3 lactating Holstein cows according to an established protocol (Cohen et al., 2015 supra). Study protocols were in compliance with the regulations of the Israeli Ministry of Health, under the supervision of the Department for Control of Animal Products, State of Israel Ministry of Agriculture Rural Development Veterinary Services and Animal Health. Certificate Nu: #80. After isolation, 60,000 cells were plated in a 35-mm plastic dish on glass cover slips for all florescence staining experiments. […] After 24 h of incubation, medium was collected for triglyceride and phospholipid quantification, and cells were harvested for cell counting, lipid, lactose or protein extraction. […] Cover slips were then rinsed four times with PBS and mounted with fluorescence mounting medium (Dako, North America Inc., Carpinteria, CA). Slides were visualized with an Olympus BX40 fluorescence microscope equipped with an Olympus DP73 digital camera using CellSens Entry software (version 1.7, Olympus). Lipid droplet diameter was measured using ImageJ software (version 1.48, NIH, Bethesda, MD). […] The effect of oleic acid on accumulation of fat in primary culture of mammary epithelial cells was determined using Nile red staining (red). […]

[3] = system: primary culture of bovine mammary epithelial cells; assay: Milk protein (casein, whey) secretion to the medium (HPLC-UV)
Excerpt: For all the experiments, primary culture of bovine mammary epithelial cells were used. The cells were isolated from 3 lactating Holstein cows according to an established protocol (Cohen et al., 2015 supra). Study protocols were in compliance with the regulations of the Israeli Ministry of Health, under the supervision of the Department for Control of Animal Products, State of Israel Ministry of Agriculture Rural Development Veterinary Services and Animal Health. Certificate Nu: #80. After isolation, 60,000 cells were plated in a 35-mm plastic dish on glass cover slips for all florescence staining experiments. For production analysis, 150,000 cells were plated in a 60-mm plastic dish for lipids, protein, and lactose extraction. Oxygen consumption assay was performed by using Seahorse system (Agilent, USA); cells were plated in 24-well plate (20,000 cells/well) and incubated with DMEM/F12, with 0.15% (v/v) bovine serum albumin and insulin (1 μg/ml), hydrocortisone (0.5 μg/ml) and prolactin (1 μg/ml) for 48 h to induce lactogenic response. Then cells were treated with three different P. lentiscus extracts: ethyl acetate, hexane and chloroform, according to the protocol that was used before (Azaizeh et al., 2013). The extracts were diluted with DMEM/F12 medium supplemented with Dimethyl Sulfoxide (DMSO) in a final concentration of 0.1% for better dissolution of the extractions. Oleic acid was added to the treatment medium at a final concentration of […] to increase fat (triglycerol) synthesis to better enable the visualization of intracellular lipid droplets. The treatment was given in the presence of insulin (1 μg/ml), hydrocortisone (0.5 μg/ml) and prolactin (1 μg/ml). After 24 h of incubation, medium was collected for triglyceride and phospholipid quantification, and cells were harvested for cell counting, lipid, lactose or protein extraction. Otherwise, cells were fixed for florescence staining or plates taken to seahorse for oxygen consumption rate measurement. After treatment, 0.5 ml cultured medium was collected to HPLC equipped with UV detector. Protein content was determined in 220 nm wavelength by C-18 reverse phase column. Identification and quantification were determined by constructing a calibration curve of external standard of known protein concentrations which dissolved in a 50 mM phosphate buffer (PH=6.7). Identification for α casein, β casein and α lactalbumin were qualified as caseins (α and β casein) and whey (a lactalbumin) protein. Positive values indicate increased protein content whereas negative values indicate decreased protein content.

[4] = system: primary culture of bovine mammary epithelial cells; assay: Milk lactose secretion to the medium (HPLC, refractive index detector)
Excerpt: For all the experiments, primary culture of bovine mammary epithelial cells were used. The cells were isolated from 3 lactating Holstein cows according to an established protocol (Cohen et al., 2015 supra). Study protocols were in compliance with the regulations of the Israeli Ministry of Health, under the supervision of the Department for Control of Animal Products, State of Israel Ministry of Agriculture Rural Development Veterinary Services and Animal Health. Certificate Nu: #80. After isolation, 60,000 cells were plated in a 35-mm plastic dish on glass cover slips for all florescence staining experiments. For production analysis, 150,000 cells were plated in a 60-mm plastic dish for lipids, protein, and lactose extraction. […] After 24 h of incubation, medium was collected for triglyceride and phospholipid quantification, and cells were harvested for cell counting, lipid, lactose or protein extraction. […] After treatment, 0.5 ml medium was collected to be analyzed using HPLC equipped with a refractive index detector at 68° C. […] Identification and quantification were determined by establishing a calibration curve of external standard of a known lactose concentration dissolved in water. […]

[5] = system: primary culture of bovine mammary epithelial cells; assay: Triglyceride / fat secreted to the medium by mammary epithelial cells (Nile red staining, HPLC-ELSD)
Excerpt: For all the experiments, primary culture of bovine mammary epithelial cells were used. The cells were isolated from 3 lactating Holstein cows according to an established protocol (Cohen et al., 2015 supra). Study protocols were in compliance with the regulations of the Israeli Ministry of Health, under the supervision of the Department for Control of Animal Products, State of Israel Ministry of Agriculture Rural Development Veterinary Services and Animal Health. Certificate Nu: #80. After isolation, 60,000 cells were plated in a 35-mm plastic dish on glass cover slips for all florescence staining experiments. For production analysis, 150,000 cells were plated in a 60-mm plastic dish for lipids, protein, and lactose extraction. […] After 24 h of incubation, medium was collected for triglyceride and phospholipid quantification, and cells were harvested for cell counting, lipid, lactose or protein extraction. […]
After treatment, total lipids were extracted from harvested cells and from collected medium. […] Quantification was performed against external standard curves and expressed as μg/per 10^6 live cells or as weight % out of the sum of phospholipids (μg) in the sample. Live cell number was determined with a hemocytometer after 5 min of trypan blue staining. […]

SMILES: O=C(O)c1cc(O)c(O)c(O)c1 [gallic acid]
- intracellular triglyceride content [1]: did not affect
- size of the intracellular lipid droplets ([2]; gallic acid added to MEC primary culture (FIG. 6)): increased
- protein secretion compared to control ([3]; 2 ppm, P=0.98): did not change
- lactose secretion [4]: increases

SMILES: O=c1c(O)c(-c2cc(O)c(O)c(O)c2)oc2cc(O)cc(O)c12 [myricetin, Myricetin]
- triglyceride secretion [5]: can increase
- intracellular triglyceride content [1]: did not affect
- casein secretion, higher than control ([3]; 1 ppm, P<0.05, FIG. 7C): 126%
- whey secretion, higher than control ([3]; 1 ppm, P=0.05, FIG. 7D): 124%
- increase of casein and whey secretion compared with control ([3]; between about 0.5 ppm and about 2.5 ppm, for example 1 ppm): 30%
- lactose secretion [4]: can increase

SMILES: CC(O)CC(=O)O (stereo not drawn) [BHBA, β-hydroxybutirate]
- triglyceride content in the cells ([1]; 1.2 mM BHBA added to 360 uM oleic acid, 48 hours, cell lysates): ~90 ug/10^6 cells

SMILES: CCCCCCCC/C=C\CCCCCCCC(=O)O [oleic acid]
- fat content (triglyceride) in medium collected from cells compared with control ([5]; 100 uM oleic acid in the presence of BSA, 24 h, Nile red): higher; also recorded: increases
- increase of triglyceride content in the cells ([1]; 360 uM oleic acid, 48 hours, cell lysates): 4 fold
- oleic acid concentration at which toxic effect is evident ([2]; primary MEC, Nile red / Dapi staining (FIG. 2)): over 1 mM

Source: patent US20230416679A1, “METHODS AND COMPOSITIONS FOR IN-VITRO AUGMENTATION OF MILK PRODUCTION FROM MAMMARY EPITHELIAL CELLS” (Wilk Technologies International Ltd., priority 2021, published 2023)
